Experimental findings from PMC9204419, “A Toolbox for the Generation of Chemical Probes for Baculovirus IAP Repeat Containing Proteins” (Frontiers in Cell and Developmental Biology, 2022) are described below.

The target of test [1] is T1, BIRC2 BIR1 (Homo sapiens, UniProt Q13490).
T1 construct: D24 S134; expressed in transfected cells; host or cells: HEK293T
The test is described as follows: NanoBRET tracer titration, BIRC2 BIR1. The class given is cell-based. As to conditions: single domain, n = 4; read-out: Tracer KD,app ± SEM, BIRC2 BIR1.

For test [2], the target named is T2, BIRC8 BIR (Homo sapiens, UniProt Q96P09).
T2 sequence (Q96P09 1-90): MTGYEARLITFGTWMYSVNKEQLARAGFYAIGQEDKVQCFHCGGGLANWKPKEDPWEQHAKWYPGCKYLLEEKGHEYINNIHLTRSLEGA
The test is described as follows: NanoBRET cellular target engagement, single domain BIRC8 BIR.
Method: (§1) In brief: Constructs contained the cDNA of full-length or single domains cloned in frame with an N-terminal NanoLuc-fusion as specified in Supplementary Table S2. Plasmids were transfected into HEK293T cells using FuGENE HD (Promega, E2312) and proteins were allowed to express for 20 h. […] The corresponding transfected cells were added and reseeded at a density of 2.5^5 cells/mL after trypsinization and resuspending in Opti-MEM without phenol red (Life Technologies). […] Competitive displacement data were then graphed using GraphPad Prism 9.3 software using a normalized 3-parameter curve fit with the following equation: Y = 100/(1 + 10^(X-LogIC50)).

The target of test [3] is T3, BIRC1 BIR[2] (Homo sapiens, UniProt Q13075).
T3 sequence (Q13075 139-251): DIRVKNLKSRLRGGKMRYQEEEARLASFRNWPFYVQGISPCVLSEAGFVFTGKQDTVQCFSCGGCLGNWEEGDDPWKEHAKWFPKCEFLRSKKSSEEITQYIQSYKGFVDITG
In words: NanoBRET cellular target engagement, single domain BIRC1 BIR[2]. To be noted: Tracer KD,app ± SEM, BIRC1 BIR[2], single domain (D139-G251), n = 4.
Method: as §1

In test [4] the target is BIRC2 BIR3 (Homo sapiens, UniProt Q13490). In words: NanoBRET cellular target engagement, single domain BIRC2 BIR3.
Chain of BIRC2 BIR3 (Q13490 251-372): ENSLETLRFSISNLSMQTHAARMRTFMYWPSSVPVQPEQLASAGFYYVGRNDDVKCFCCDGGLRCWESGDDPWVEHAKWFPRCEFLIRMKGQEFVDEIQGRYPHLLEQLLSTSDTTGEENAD
Method: as §1
Test [5] concerns the target T4, BIRC7 (Homo sapiens, UniProt Q96CA5).
T4 sequence (Q96CA5 1-298): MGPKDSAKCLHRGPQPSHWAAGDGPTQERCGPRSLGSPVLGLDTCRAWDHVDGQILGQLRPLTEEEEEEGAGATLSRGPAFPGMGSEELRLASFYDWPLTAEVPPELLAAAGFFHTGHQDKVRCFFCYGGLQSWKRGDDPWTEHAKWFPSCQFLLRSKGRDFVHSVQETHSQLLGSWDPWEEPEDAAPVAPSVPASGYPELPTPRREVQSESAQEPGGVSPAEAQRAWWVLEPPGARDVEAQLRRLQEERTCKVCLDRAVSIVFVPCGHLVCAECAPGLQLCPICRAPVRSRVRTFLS
The test is described as follows: NanoBRET cellular target engagement, full-length BIRC7.
Method: as §1

Test [6] addresses BIRC3 (Homo sapiens, UniProt Q13489). The test is described as follows: NanoBRET cellular target engagement, full-length BIRC3.
Method: as §1
Test [7] has as its target T5, BIRC4 BIR3 (Homo sapiens, UniProt P98170).
T5 construct: S245 N373; expressed in transfected cells; host or cells: HEK293T
In words: NanoBRET tracer titration, BIRC4 BIR3. In kind it is cell-based. To be noted: single domain, n = 4; read-out: Tracer KD,app ± SEM, BIRC4 BIR3.

Test [8] has as its target BIRC2 (Homo sapiens, UniProt Q13490). In words: NanoBRET cellular target engagement, full-length BIRC2. As to conditions: Tracer K D, full-length BIRC2, full-length.
Method: as §1
Test [9] has as its target T6, BIRC1 BIR1 (Homo sapiens, UniProt Q13075).
T6 construct: N256 Q391; expressed in transfected cells; host or cells: HEK293T
In words: NanoBRET tracer titration, BIRC1 BIR1 (third BIR domain of BIRC1). The class given is cell-based. To be noted: third BIR domain of BIRC1 (N256-Q391), n = 4; read-out: Tracer KD,app ± SEM, BIRC1 BIR1.

Test [10] deals with BIRC3 BIR2 (Homo sapiens, UniProt Q13489). In words: NanoBRET cellular target engagement, single domain BIRC3 BIR2. To be noted: Tracer KD,app ± SEM, BIRC3 BIR2, single domain, n = 4.
Chain of BIRC3 BIR2 (Q13489 147-253): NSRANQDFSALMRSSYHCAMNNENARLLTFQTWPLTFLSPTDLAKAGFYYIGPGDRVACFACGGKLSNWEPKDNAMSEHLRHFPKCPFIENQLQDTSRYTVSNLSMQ
Method: as §1
Test [11] concerns the target BIRC4 (Homo sapiens, UniProt P98170). The test is described as follows: NanoBRET cellular target engagement, full-length BIRC4.
Method: as §1
For test [12], the target named is T7, BIRC4 BIR2 (Homo sapiens, UniProt P98170).
T7 construct: G144 S253; expressed in transfected cells; host or cells: HEK293T
T7 sequence (P98170 144-253): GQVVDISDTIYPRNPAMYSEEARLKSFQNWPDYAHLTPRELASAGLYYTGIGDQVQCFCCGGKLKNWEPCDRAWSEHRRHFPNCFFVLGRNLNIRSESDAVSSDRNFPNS
The test is described as follows: NanoBRET tracer titration, BIRC4 BIR2. As to conditions: single domain, n = 4; read-out: Tracer KD,app ± SEM, BIRC4 BIR2. The class given is cell-based.

For test [13], the target named is T8, BIRC4 BIR1 (Homo sapiens, UniProt P98170).
T8 construct: N4 Q114; expressed in transfected cells; host or cells: HEK293T
T8 sequence (P98170 4-114): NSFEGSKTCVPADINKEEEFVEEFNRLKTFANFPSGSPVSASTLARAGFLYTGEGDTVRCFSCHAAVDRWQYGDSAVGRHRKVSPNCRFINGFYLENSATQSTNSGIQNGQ
In words: NanoBRET tracer titration, BIRC4 BIR1. The class given is cell-based. To be noted: single domain, n = 4; read-out: Tracer KD,app ± SEM, BIRC4 BIR1.

Test [14] has as its target T9, BIRC8 (Homo sapiens, UniProt Q96P09).
T9 sequence (Q96P09 1-236): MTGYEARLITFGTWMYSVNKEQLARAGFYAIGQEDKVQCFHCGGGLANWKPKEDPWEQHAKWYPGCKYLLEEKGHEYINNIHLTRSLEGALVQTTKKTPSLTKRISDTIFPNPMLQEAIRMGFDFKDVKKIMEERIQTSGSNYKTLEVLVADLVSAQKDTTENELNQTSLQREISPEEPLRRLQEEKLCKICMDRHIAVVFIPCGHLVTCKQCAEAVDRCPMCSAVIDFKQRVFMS
The test is described as follows: NanoBRET cellular target engagement, full-length BIRC8.
Method: as §1

Test [15] concerns the target BIRC2 BIR2 (Homo sapiens, UniProt Q13490). In words: NanoBRET cellular target engagement, single domain BIRC2 BIR2. As to conditions: Tracer KD,app ± SEM, BIRC2 BIR2, single domain, n = 4.
Method: as §1
The target in test [16] is T10, BIRC5 (Homo sapiens, UniProt O15392).
T10 construct: M1 D142; expressed in transfected cells; host or cells: HEK293T
T10 sequence (O15392 whole entry): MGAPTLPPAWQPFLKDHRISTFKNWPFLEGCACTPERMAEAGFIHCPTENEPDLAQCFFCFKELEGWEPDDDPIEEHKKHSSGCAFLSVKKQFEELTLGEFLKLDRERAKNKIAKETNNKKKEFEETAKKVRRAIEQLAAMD
The test is described as follows: NanoBRET tracer titration, BIRC5. To be noted: full-length taken as single BIR domain construct, n = 4; read-out: Tracer KD,app ± SEM, BIRC5. The class given is cell-based.

For test [17], the target named is BIRC3 BIR3 (Homo sapiens, UniProt Q13489). In words: NanoBRET cellular target engagement, single domain BIRC3 BIR3. To be noted: Tracer KD,app ± SEM, BIRC3 BIR3, single domain, n = 4.
Chain of BIRC3 BIR3 (Q13489 236-360): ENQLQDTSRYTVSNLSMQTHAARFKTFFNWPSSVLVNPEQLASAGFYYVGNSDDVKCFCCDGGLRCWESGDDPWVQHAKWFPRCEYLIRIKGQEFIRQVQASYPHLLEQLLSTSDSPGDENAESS
Method: as §1
Test [18] deals with T11, BIRC3 BIR1 (Homo sapiens, UniProt Q13489).
T11 construct: N6 S116; expressed in transfected cells; host or cells: HEK293T
T11 sequence (Q13489 6-116): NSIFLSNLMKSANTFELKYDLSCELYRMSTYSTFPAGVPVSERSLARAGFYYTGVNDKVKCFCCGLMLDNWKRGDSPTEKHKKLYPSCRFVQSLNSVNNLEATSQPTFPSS
The test is described as follows: NanoBRET tracer titration, BIRC3 BIR1. In kind it is cell-based. To be noted: single domain, n = 4; read-out: Tracer KD,app ± SEM, BIRC3 BIR1.

In test [19] the target is T12, BIRC7 BIR (Homo sapiens, UniProt Q96CA5).
T12 sequence (Q96CA5 70-176): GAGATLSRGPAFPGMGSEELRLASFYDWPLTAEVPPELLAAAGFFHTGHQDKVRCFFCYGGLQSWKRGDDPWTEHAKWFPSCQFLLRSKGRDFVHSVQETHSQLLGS
The test is described as follows: NanoBRET cellular target engagement, single domain BIRC7 BIR. As to conditions: Tracer KD,app ± SEM, BIRC7 BIR, single domain, n = 4.
Method: as §1

Values joined by “and” are separate entries in the source; they are usually repeats but may differ in a detail not shown here. Equal entries are not always repeated. Bounds are passed on as bounds.

T6 sequence (Q13075 256-391): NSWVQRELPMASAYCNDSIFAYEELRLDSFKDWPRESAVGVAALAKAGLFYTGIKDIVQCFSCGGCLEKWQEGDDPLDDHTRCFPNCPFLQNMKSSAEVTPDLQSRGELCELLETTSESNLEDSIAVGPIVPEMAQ
Chain of BIRC4 (P98170 whole entry): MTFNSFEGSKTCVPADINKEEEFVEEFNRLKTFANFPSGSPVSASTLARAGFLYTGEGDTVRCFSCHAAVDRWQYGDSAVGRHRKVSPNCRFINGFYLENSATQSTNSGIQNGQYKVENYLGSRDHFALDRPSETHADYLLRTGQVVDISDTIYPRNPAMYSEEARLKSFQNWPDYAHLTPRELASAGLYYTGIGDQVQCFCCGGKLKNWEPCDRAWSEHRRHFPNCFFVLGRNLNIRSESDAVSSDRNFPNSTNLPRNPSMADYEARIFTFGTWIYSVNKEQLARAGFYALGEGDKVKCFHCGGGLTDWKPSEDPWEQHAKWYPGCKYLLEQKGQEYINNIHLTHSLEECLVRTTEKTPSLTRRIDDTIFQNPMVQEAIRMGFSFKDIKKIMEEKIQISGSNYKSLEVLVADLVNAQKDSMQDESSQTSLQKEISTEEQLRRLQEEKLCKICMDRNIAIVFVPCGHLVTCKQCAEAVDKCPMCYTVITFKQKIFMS
Chain of BIRC3 (Q13489 whole entry): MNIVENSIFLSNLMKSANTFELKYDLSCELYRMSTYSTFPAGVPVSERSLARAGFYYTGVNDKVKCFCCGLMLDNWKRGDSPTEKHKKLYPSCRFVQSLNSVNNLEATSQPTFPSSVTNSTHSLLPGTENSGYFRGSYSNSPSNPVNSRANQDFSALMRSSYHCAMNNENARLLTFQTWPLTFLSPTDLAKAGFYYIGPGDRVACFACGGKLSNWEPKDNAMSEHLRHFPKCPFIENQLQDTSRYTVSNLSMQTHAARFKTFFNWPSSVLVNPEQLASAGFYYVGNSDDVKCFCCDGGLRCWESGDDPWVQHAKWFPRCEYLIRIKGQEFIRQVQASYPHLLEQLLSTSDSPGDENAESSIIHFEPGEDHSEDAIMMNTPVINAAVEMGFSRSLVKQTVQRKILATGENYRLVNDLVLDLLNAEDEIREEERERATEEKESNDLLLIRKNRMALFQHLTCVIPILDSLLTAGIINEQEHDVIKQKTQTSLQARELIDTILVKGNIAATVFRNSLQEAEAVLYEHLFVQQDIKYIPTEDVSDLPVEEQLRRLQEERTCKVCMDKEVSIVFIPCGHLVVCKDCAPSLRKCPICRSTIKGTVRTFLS
T5 sequence (P98170 245-373): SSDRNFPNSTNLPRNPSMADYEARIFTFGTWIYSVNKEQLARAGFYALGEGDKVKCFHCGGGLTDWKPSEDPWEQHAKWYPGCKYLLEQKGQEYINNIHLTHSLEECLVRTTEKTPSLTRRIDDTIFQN
Chain of BIRC2 (Q13490 whole entry): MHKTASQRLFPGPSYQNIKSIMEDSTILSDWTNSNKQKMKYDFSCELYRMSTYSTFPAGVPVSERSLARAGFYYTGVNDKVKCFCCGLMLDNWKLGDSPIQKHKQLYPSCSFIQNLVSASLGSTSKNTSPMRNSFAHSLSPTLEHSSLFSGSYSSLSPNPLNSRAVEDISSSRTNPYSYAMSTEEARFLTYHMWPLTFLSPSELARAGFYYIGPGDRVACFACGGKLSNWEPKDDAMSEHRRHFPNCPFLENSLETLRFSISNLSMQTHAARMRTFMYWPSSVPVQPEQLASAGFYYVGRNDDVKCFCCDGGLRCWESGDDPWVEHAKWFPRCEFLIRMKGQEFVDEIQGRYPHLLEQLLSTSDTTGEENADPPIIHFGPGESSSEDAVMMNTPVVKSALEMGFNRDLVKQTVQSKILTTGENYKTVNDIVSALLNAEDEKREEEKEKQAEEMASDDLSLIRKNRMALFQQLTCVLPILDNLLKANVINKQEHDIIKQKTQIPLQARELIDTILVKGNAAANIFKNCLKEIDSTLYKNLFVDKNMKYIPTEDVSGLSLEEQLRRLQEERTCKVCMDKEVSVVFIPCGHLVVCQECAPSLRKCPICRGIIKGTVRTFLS
T1 sequence (Q13490 24-134): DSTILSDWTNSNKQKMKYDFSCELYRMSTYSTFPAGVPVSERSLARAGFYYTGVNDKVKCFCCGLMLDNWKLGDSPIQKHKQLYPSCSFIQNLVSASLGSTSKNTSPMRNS
Chain of BIRC2 BIR2 (Q13490 165-267): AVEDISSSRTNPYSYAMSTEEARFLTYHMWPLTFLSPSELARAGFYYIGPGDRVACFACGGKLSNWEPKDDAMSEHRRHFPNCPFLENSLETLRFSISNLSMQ

For the molecule `CNC(C)C(=O)NC(C(=O)N1CCCC1c1nc(C(=O)c2cccc(OCCOCCOCCNC(=O)CCc3ccc4n3[B-](F)(F)[N+]3=C(c5ccc[nH]5)C=CC3=C4)c2)cs1)C1CCCCC1` (centres unmarked) [IAP Tracer], the Kd in test [1] was 2.42 µM and > 1 µM; in [2], 2.76 ± 0.34 µM; in [3], 1.79 µM and > 1 µM; in test [4] (Tracer K D, app, BIRC2-BIR3 domain, single domain), 0.05 ± 0.01 µM; in [4] (Tracer KD,app ± SEM, BIRC2 BIR3, single domain, n = 4), under 1 µM; in test [5] (Tracer K D, full-length BIRC7, full-length), under 0.25 µM. In addition, the Kd was 0.25 ± 0.02 µM in test [5] (Tracer KD,app ± SEM, BIRC7, full-length, n = 4); under 0.25 µM in [6] (Tracer K D, full-length BIRC3, full-length); 0.19 ± 0.03 µM in [6] (Tracer KD,app ± SEM, BIRC3, full-length, n = 4); over 4 µM in test [7]; < 0.25 µM and 0.02 µM in test [8]; < 4 µM and > 4 µM and > 1 µM in [9]. Moreover, the Kd in [10] is 1.67 µM and > 1 µM; in [11] (Tracer K D, full-length BIRC4, full-length) it was under 0.25 µM; in [11] (Tracer KD,app ± SEM, BIRC4, full-length, n = 4) it was 0.04 µM; in test [12], over 4 µM; in [13], 2.75 µM and > 1 µM; in test [14] it was 1.06 ± 0.35 µM. For the same molecule, the Kd was 2.6 µM and > 1 µM in [15]; over 4 µM in test [16]; 0.38 µM and < 1 µM in [17]; 2.31 µM and > 1 µM in test [18]; 0.54 µM and < 1 µM in [19].
